Source: patent US9382226B2, “Aldosterone synthase inhibitors” (Merck Sharp & Dohme Corp., priority 2010, dated 2016)

Tests used:
human CYP11B2 = molecular target: T1, human CYP11B2 (Homo sapiens, UniProt P19099); assay: V79-Human-CYP11B2 cell assay (aldosterone formation, HTRF); assay type: cell-based; details: V79 cells stably expressing human CYP11B2; substrate 125 nM 11-deoxycorticosterone; 3 hours
T1 construct: expressed in transfected cells; host or cells: V79 cells (clone V79-hCYP11B2-CLE9)
T1 sequence (P19099 25-503): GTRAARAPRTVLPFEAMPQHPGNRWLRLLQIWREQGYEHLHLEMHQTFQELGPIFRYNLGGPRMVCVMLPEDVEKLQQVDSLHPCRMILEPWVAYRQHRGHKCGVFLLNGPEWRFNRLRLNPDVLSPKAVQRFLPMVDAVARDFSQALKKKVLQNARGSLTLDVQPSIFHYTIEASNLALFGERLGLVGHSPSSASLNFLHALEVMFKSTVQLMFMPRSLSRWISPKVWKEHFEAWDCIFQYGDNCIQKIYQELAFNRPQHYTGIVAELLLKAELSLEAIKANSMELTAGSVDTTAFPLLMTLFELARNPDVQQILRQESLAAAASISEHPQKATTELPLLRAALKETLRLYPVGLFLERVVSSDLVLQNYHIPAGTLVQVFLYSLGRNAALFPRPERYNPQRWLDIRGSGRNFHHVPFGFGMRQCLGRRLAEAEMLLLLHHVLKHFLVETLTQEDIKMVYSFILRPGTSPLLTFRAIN
Experimental: (§1) Methods for V79-Human-CYP11B2 and V79-Human-CYP11B1 Assays: V79 cell lines stably expressing the either the human CYP11B2 or the human CYP11B1 enzyme were generated using a standard transfection protocol. V79 cells were transfected with plasmids pTriEx3-Hygro-hCyp11B2 or pTriEx3-Hygro-hCyp11B1 using Lipofectamine2000 reagent. V79 cells that stably express the human CYP11B2 or human CYP11B1 enzyme were selected for and maintained in DMEM supplemented with 10% FBS and 400 μg/mL hygromycin for ˜2 weeks. Single cell clones were generated by […] in DMEM supplemented with 10% FBS and 400 μg/mL hygromycin until single colonies were obtained. Clones V79-hCYP11B2-CLE9 and V79-hCYP11B1-8C7, were determined to produce the most aldosterone and cortisol, respectively, and were selected for inhibitor screening. For testing of inhibitors, cells were harvested at 80% confluency with 0.5% Trypsan-EDTA, washed once in PBS, and reconstituted in DMEM 0.1% BSA media at a cell concentration of 400,000 cells/mL. 25 μl of cells were added to a 384 well tissue culture treated plate and mixed with 0.25 μl of inhibitor or DMSO (1% final DMSO concentration) for 1 hour at 37° C., 5% CO2. After pre-incubation with inhibitor, the reaction was initiated by adding 5 μl of substrate (final concentration of 125 nM 11-deoxycorticosterone for the CYP11B2 assay or 250 nM 11-deoxycortisol for the CYP11B1 assay). The reaction was carried out for 3 hours at 37° C., 5% CO2 and was stopped by harvesting the supernatants. The amount of product in the supernatant (aldosterone for CYP11B2 assay and cortisol for the CYP11B1 assay) was measured using HTRF-based assay kit (Aldosterone HTRF-CisBio#64ALDPEB, Cortisol HTRF-CisBio #63IDC002-CORT). IC50's for the inhibitor were determined by plotting the amount of product formed against the concentration of inhibitor using sigmoidal dose-response curve (variable slope) fit in GraphPad.

human CYP11B1 = molecular target: T2, human CYP11B1 (Homo sapiens, UniProt P15538); assay: V79-Human-CYP11B1 cell assay (cortisol formation, HTRF); assay type: cell-based; details: V79 cells stably expressing human CYP11B1; substrate 250 nM 11-deoxycortisol; 3 hours
T2 construct: expressed in transfected cells; host or cells: V79 cells (clone V79-hCYP11B1-8C7)
T2 sequence (P15538 25-503): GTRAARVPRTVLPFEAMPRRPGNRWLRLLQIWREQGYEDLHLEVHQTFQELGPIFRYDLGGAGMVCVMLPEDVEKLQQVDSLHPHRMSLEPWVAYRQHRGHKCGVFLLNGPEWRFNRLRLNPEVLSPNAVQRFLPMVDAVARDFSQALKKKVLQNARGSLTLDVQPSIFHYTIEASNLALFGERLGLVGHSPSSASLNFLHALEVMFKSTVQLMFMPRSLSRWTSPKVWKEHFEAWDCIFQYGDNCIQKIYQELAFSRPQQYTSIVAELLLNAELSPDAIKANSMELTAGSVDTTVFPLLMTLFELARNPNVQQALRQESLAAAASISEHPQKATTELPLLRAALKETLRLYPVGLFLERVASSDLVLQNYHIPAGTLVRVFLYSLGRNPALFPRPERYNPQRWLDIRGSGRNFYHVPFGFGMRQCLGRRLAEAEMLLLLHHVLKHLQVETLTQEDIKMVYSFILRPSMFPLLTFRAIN
Experimental: as §1, with “Clones V79-hCYP11B2-CLE9 and V79-hCYP11B1-8C7, were determined to produce the most aldosterone and cortisol, respectively, and were selected for inhibitor screening.” left out, “After pre-incubation with inhibitor, the reaction was initiated by adding 5 μl of substrate (final concentration of 125 nM 11-deoxycorticosterone for the CYP11B2 assay or 250 nM 11-deoxycortisol for the CYP11B1 assay).” left out

SMILES | IC50 (human CYP11B2) [nM] | IC50 (human CYP11B1) [nM]
Cn1c(-c2cnccc2C(F)(F)F)nc2cc(F)c(Cl)cc21 [Example 335, 6-chloro-5-fluoro-1-methyl-2-[4-(trifluoromethyl)pyridin-3-yl]-1H-benzimidazole] | 2.85 | 563
Fc1cncc(-c2nc3cc(F)c(F)cc3n2OCc2ccccc2)c1 [Example 373, 1-(benzyloxy)-5,6-difluoro-2-(5-fluoropyridin-3-yl)-1H-benzimidazole] | 0.5 | 71.5
